Laboratory results published in patent publication US6660872B1, “Method of producing methoxyimino acetic amide” (Bayer Aktiengesellschaft, priority 1999, dated 2003).
“And” between values parts separate entries of the source, which are not always exact repeats. Equal entries are not always repeated.

Test: determination of the logP-Values by HPLC according to EEC-Direktive 79/831 Annex V. A8
Format: physicochemical
Details: gradient method, acetonitrile/0,1% aqueous phosphoric acid; for chromatographic logP: HPLC (gradient, acetonitrile/0.1% aqueous phosphoric acid), read-out: log p
Procedure: The determination of the logP-Values was carried out for all examples according to the EEC-Direktive 79/831 Annex V. A8 by HPLC (gradient method, acetonitrile/0,1% aqueous phosphoric acid).

Row | SMILES | chromatographic logP | log p
1 | CNC(=O)/C(=N/OC)c1ccccc1Oc1ncnc(F)c1F [N-methyl-E-2-[2-(5,6-difluoropyrimidin-4-yloxy)-phenyl]-2-methoxyiminoacetamide] | 1.95 | 
2 | COC(=O)C(=O)c1ccccc1O [methyl 2-hydroxyphenylglyoxylate] | 1.87 | 
3 | CNC(=O)/C(=N/OC)c1ccccc1O [N-methyl-E-2-(2-hydroxyphenyl)-2-methoxyimino-acetamide] | 0.98 | 
4 | O=C1Oc2ccccc2/C1=N\O [E-benzofuran-2,3-dione 3-oxime] | 1.55 | 
5 | COC(=O)/C(=N\O)c1ccccc1O [methyl Z-2-(2-hydroxyphenyl)-2-hydroxyimino-acetate] | 1.68 | 1.70
6 | CNC(=O)/C(=N\OC)c1ccccc1Oc1ncnc(Oc2ccccc2Cl)c1F (single isomer, unassigned) [XI-2, Z-isomer, N-methyl-Z-2-[2-(5-fluoro-2′-chlorophenoxypyrimidin-4-yloxy)-phenyl]-2-methoxyiminoacetamide] |  | 2.95 and 2.94
7 | CO/N=C(\C(=O)OC)c1ccccc1O [methyl Z-2-(2-hydroxyphenyl)-2-methoxyimino-acetate] | 2.39 | 2.38 and 2.37
8 | CNC(=O)/C(=N/OC)c1ccccc1Oc1ncnc(Oc2cccc(Cl)c2C)c1F [XI-1, E-isomer, N-methyl-E-2-[2-(5-fluoro-2′-methyl-3′-chlorophenoxypyrimidin-4-yloxy)phenyl]-2-methoxyiminoacetamide] | 3.51 | 3.50
9 | CNC(=O)/C(=N\OC)c1ccccc1Oc1ncnc(Oc2cccc(Cl)c2C)c1F [XI-1, Z-isomer, N-methyl-Z-2-[2-(5-fluoro-2′-methyl-3′-chlorophenoxy-pyrimidin-4-yloxy)phenyl]-2-methoxyiminoacetamide] | 3.44 | 3.43
10 | CNC(=O)/C(=N/OC)c1ccccc1Oc1ncnc(Oc2ccccc2Cl)c1F (single isomer, unassigned) [XI-2, E-isomer, N-methyl-E-2-[2-(5-fluoro-2′-chlorophenoxypyrimidin-4-yloxy)phenyl]-2-methoxyiminoacetamide] |  | 3.01

Continued, values first:

Row | chromatographic logP | log p | SMILES
11 | 1.87 |  | CNC(=O)/C(=N\OC)c1ccccc1Oc1ncnc(F)c1F [N-methyl-Z-2-[2-(5,6-difluoro-pyrimidin-4-yloxy)phenyl]-2-methoxyiminoacetamide]
12 | 1.29 |  | CNC(=O)/C(=N\OC)c1ccccc1O [N-methyl-Z-2-(2-hydroxyphenyl)-2-methoxyiminoacetamide]
13 | 0.95 |  | COC(=O)/C(=N/O)c1ccccc1O [methyl E-2-(2-hydroxyphenyl)-2-hydroxyimino-acetate]
14 | 1.48 |  | CO/N=C(/C(=O)OC)c1ccccc1O [methyl E-2-(2-hydroxyphenyl)-2-methoxyimino-acetate]
